The record followed here is patent US20090299044A1 (priority 2006, published 2009).

By pIC50 is commonly meant the negative decadic logarithm of the IC50, by convention in mol/L. Read a high pIC50 as a low IC50.

pIC50: −log10 of the molar value. Bridge positions count the residues as written; N and C are the ends. Square brackets hold non-standard residues; d marks the D form. Peptide text beside a SMILES is read from it. 1Nal = N[C@@H](Cc1cccc2ccccc12)C(=O)O A value given as a limit tells only on which side of the number the result lay.

Test [1] has as its target T1, human Kv1.1 (HEK293) (Homo sapiens, UniProt Q09470).
T1 construct: expressed in transfected cells; host or cells: HEK293
The test can be described thus: cell-based.

In test [2] the target is T2, human Kv1.3 (CHO) (Homo sapiens, UniProt P22001).
T2 construct: expressed in transfected cells; host or cells: CHO
The test can be described thus: cell-based.

T2 sequence (P22001 whole entry): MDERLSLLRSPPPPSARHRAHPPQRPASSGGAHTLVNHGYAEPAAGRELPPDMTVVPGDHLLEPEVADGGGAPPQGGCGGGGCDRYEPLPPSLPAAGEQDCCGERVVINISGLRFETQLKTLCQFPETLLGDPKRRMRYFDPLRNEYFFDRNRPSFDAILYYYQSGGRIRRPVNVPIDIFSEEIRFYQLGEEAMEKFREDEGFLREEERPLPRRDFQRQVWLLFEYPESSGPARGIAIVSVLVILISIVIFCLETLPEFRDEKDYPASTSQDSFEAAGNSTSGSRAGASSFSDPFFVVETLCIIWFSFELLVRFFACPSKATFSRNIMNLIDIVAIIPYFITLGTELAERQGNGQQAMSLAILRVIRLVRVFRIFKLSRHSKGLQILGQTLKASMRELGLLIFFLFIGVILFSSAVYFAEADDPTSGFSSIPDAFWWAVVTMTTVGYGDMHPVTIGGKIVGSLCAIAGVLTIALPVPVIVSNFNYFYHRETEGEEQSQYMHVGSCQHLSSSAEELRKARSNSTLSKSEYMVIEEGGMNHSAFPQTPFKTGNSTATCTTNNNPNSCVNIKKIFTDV
T1 sequence (Q09470 whole entry): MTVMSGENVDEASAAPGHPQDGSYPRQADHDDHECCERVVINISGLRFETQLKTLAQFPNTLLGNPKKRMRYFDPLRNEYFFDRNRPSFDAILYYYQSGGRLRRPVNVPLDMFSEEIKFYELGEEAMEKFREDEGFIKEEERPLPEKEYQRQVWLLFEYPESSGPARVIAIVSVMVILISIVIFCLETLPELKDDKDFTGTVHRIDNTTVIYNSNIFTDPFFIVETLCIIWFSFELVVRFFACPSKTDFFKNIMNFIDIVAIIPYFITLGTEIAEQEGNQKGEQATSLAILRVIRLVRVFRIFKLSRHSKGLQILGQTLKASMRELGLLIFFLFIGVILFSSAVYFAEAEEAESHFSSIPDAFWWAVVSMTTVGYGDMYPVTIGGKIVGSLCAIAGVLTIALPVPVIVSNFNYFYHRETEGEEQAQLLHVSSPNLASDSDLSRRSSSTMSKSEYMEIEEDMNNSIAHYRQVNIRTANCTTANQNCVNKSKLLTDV

`CC[C@H](C)[C@@H]1NC(=O)[C@H](CCCCN)NC(=O)[C@@H](NC(=O)[C@H](CCCCN)NC(=O)[C@@H](NC(=O)[C@H](CC(N)=O)NC(=O)[C@@H](NC(=O)[C@@H](NC(=O)[C@@H](NC(=O)CN)C(C)C)[C@@H](C)CC)[C@@H](C)CC)C(C)C)CSSC[C@@H]2NC(=O)[C@H](CCCCN)NC(=O)CNC(=O)[C@H](Cc3ccccc3)NC(=O)[C@H](CCCNC(=N)N)NC(=O)[C@H](CCSC)NC(=O)CNC(=O)[C@H](C)NC(=O)[C@H](CCCCN)NC(=O)[C@H](CCCCN)NC(=O)[C@@H]3CSSC[C@@H](C(=O)N[C@H](C(=O)N4CCC[C@H]4C(=O)N[C@@H](CCCCN)C(=O)O)[C@@H](C)O)NC(=O)[C@H](Cc4c[nH]cn4)NC(=O)[C@H](CSSC[C@H](NC(=O)[C@H](CCC(N)=O)NC(=O)[C@H](CCCNC(=N)N)NC(=O)[C@H](CO)NC1=O)C(=O)N[C@@H](CC(C)C)C(=O)N[C@@H](CCC(=O)O)C(=O)N[C@@H](CCC(=O)O)C(=O)N3)NC(=O)[C@H](CCCCN)NC(=O)CNC(=O)[C@H](CC(N)=O)NC(=O)[C@H](CCSC)NC2=O` [P17E] (H-GVIINVKCKISRQCLEECKKAGMRFGKCMNGKCHCTPK-OH; disulfide 8-28, 14-33, 18-35): the negative-log IC50 (pIC50) in test [1] is 11.74; in test [2], 10.84.
In the case of `CC[C@H](C)[C@@H]1NC(=O)[C@H](CCCCN)NC(=O)[C@@H](NC(=O)[C@H](CCCCN)NC(=O)[C@@H](NC(=O)[C@H](CC(N)=O)NC(=O)[C@@H](NC(=O)[C@@H](NC(=O)[C@@H](NC(=O)CN)C(C)C)[C@@H](C)CC)[C@@H](C)CC)C(C)C)CSSC[C@@H]2NC(=O)[C@H](CCCCN)NC(=O)CNC(=O)[C@H](Cc3ccccc3)NC(=O)[C@H](CCCNC(=N)N)NC(=O)[C@H](CCSC)NC(=O)CNC(=O)[C@H](C)NC(=O)[C@H](CCCCN)NC(=O)[C@H](CCCCN)NC(=O)[C@@H]3CSSC[C@@H](C(=O)N[C@H](C(=O)N4CCC[C@H]4C(=O)N[C@@H](CCCCN)C(=O)O)[C@@H](C)O)NC(=O)[C@H](Cc4c[nH]cn4)NC(=O)[C@H](CSSC[C@H](NC(=O)[C@H](CCC(N)=O)NC(=O)[C@H](CCCNC(=N)N)NC(=O)[C@H](CO)NC1=O)C(=O)N[C@@H](CC(C)C)C(=O)N[C@@H](CCC(=O)O)C(=O)N[C@@H](Cc1cccc4ccccc14)C(=O)N3)NC(=O)[C@H](CCCCN)NC(=O)CNC(=O)[C@H](CC(N)=O)NC(=O)[C@H](CCSC)NC2=O` [P17Nal] (H-GVIINVKCKISRQCLE[1Nal]CKKAGMRFGKCMNGKCHCTPK-OH; disulfide 8-28, 14-33, 18-35), the pIC50 in test [1] is over 11.82; in test [2], 10.79.
For `CC[C@H](C)[C@@H]1NC(=O)[C@H](CCCCN)NC(=O)[C@@H](NC(=O)[C@H](CCCCN)NC(=O)[C@@H](NC(=O)[C@H](CC(N)=O)NC(=O)[C@@H](NC(=O)[C@@H](NC(=O)[C@@H](NC(=O)CN)C(C)C)[C@@H](C)CC)[C@@H](C)CC)C(C)C)CSSC[C@@H]2NC(=O)[C@H](CCCCN)NC(=O)CNC(=O)[C@H](Cc3ccccc3)NC(=O)[C@H](CCCNC(=N)N)NC(=O)[C@H](CCSC)NC(=O)CNC(=O)[C@H](C)NC(=O)[C@H](CCCCN)NC(=O)[C@H](CCCCN)NC(=O)[C@@H]3CSSC[C@@H](C(=O)N[C@H](C(=O)N4CCC[C@H]4C(=O)N[C@@H](CCCCN)C(=O)O)[C@@H](C)O)NC(=O)[C@H](Cc4c[nH]cn4)NC(=O)[C@H](CSSC[C@H](NC(=O)[C@H](CCC(N)=O)NC(=O)[C@H](CCCNC(=N)N)NC(=O)[C@H](CO)NC1=O)C(=O)N[C@@H](CC(C)C)C(=O)N[C@@H](CCC(=O)O)C(=O)N[C@@H](CCCNC(=N)N)C(=O)N3)NC(=O)[C@H](CCCCN)NC(=O)CNC(=O)[C@H](CC(N)=O)NC(=O)[C@H](CCSC)NC2=O` [P17R] (H-GVIINVKCKISRQCLERCKKAGMRFGKCMNGKCHCTPK-OH; disulfide 8-28, 14-33, 18-35), the negative-log IC50 (pIC50) in test [1] is over 11.82; in test [2] it was 10.98.
With `CC[C@H](C)[C@@H]1NC(=O)[C@H](CCCCN)NC(=O)[C@@H](NC(=O)[C@H](CCCCN)NC(=O)[C@@H](NC(=O)[C@H](CC(N)=O)NC(=O)[C@@H](NC(=O)[C@@H](NC(=O)[C@@H](NC(=O)CN)C(C)C)[C@@H](C)CC)[C@@H](C)CC)C(C)C)CSSC[C@@H]2NC(=O)[C@H](CCCCN)NC(=O)CNC(=O)[C@H](Cc3ccccc3)NC(=O)[C@H](CCCNC(=N)N)NC(=O)[C@H](CCSC)NC(=O)CNC(=O)[C@H](C)NC(=O)[C@H](CCCCN)NC(=O)[C@H](CCCCN)NC(=O)[C@@H]3CSSC[C@@H](C(=O)N[C@H](C(=O)N[C@@H](Cc4cccc5ccccc45)C(=O)N[C@@H](CCCCN)C(=O)O)[C@@H](C)O)NC(=O)[C@H](Cc4c[nH]cn4)NC(=O)[C@H](CSSC[C@H](NC(=O)[C@H](CCC(N)=O)NC(=O)[C@H](CCCNC(=N)N)NC(=O)[C@H](CO)NC1=O)C(=O)N[C@@H](CC(C)C)C(=O)N[C@@H](CCC(=O)O)C(=O)N1CCC[C@H]1C(=O)N3)NC(=O)[C@H](CCCCN)NC(=O)CNC(=O)[C@H](CC(N)=O)NC(=O)[C@H](CCSC)NC2=O` [P37Nal] (H-GVIINVKCKISRQCLEPCKKAGMRFGKCMNGKCHCT[1Nal]K-OH; disulfide 8-28, 14-33, 18-35), the figures for the negative logarithm of the IC50 (pIC50) in test [1] and in test [2] were 11.17 and 10.15, respectively.
Consider `CC[C@H](C)[C@@H]1NC(=O)[C@H](CCCCN)NC(=O)[C@@H](NC(=O)[C@H](CCCCN)NC(=O)[C@@H](NC(=O)[C@H](CC(N)=O)NC(=O)[C@@H](NC(=O)[C@@H](NC(=O)[C@@H](NC(=O)CN)C(C)C)[C@@H](C)CC)[C@@H](C)CC)C(C)C)CSSC[C@@H]2NC(=O)[C@H](CCCCN)NC(=O)CNC(=O)[C@H](Cc3ccccc3)NC(=O)[C@H](CCCNC(=N)N)NC(=O)[C@H](CCSC)NC(=O)CNC(=O)[C@H](C)NC(=O)[C@H](CCCCN)NC(=O)[C@H](CCCCN)NC(=O)[C@@H]3CSSC[C@@H](C(=O)N[C@H](C(=O)N[C@@H](CCCNC(=N)N)C(=O)N[C@@H](CCCCN)C(=O)O)[C@@H](C)O)NC(=O)[C@H](Cc4c[nH]cn4)NC(=O)[C@H](CSSC[C@H](NC(=O)[C@H](CCC(N)=O)NC(=O)[C@H](CCCNC(=N)N)NC(=O)[C@H](CO)NC1=O)C(=O)N[C@@H](CC(C)C)C(=O)N[C@@H](CCC(=O)O)C(=O)N1CCC[C@H]1C(=O)N3)NC(=O)[C@H](CCCCN)NC(=O)CNC(=O)[C@H](CC(N)=O)NC(=O)[C@H](CCSC)NC2=O` [P37R] (H-GVIINVKCKISRQCLEPCKKAGMRFGKCMNGKCHCTRK-OH; disulfide 8-28, 14-33, 18-35), for which the negative-log IC50 (pIC50) in test [1] is 11.70; in test [2], 10.88.
In the case of `CC[C@H](C)[C@@H]1NC(=O)[C@H](CCCCN)NC(=O)[C@@H](NC(=O)[C@H](CCCCN)NC(=O)[C@@H](NC(=O)[C@H](CC(N)=O)NC(=O)[C@@H](NC(=O)[C@@H](NC(=O)[C@@H](NC(=O)CN)C(C)C)[C@@H](C)CC)[C@@H](C)CC)C(C)C)CSSC[C@@H]2NC(=O)[C@H](CCCCN)NC(=O)CNC(=O)[C@H](Cc3ccccc3)NC(=O)[C@H](CCCNC(=N)N)NC(=O)[C@H](CCSC)NC(=O)CNC(=O)[C@H](C)NC(=O)[C@H](CCCCN)NC(=O)[C@H](CCCCN)NC(=O)[C@@H]3CSSC[C@@H](C(=O)N[C@H](C(=O)N4CCC[C@H]4C(=O)N[C@@H](CCCCN)C(=O)O)[C@@H](C)O)NC(=O)[C@H](Cc4c[nH]cn4)NC(=O)[C@H](CSSC[C@H](NC(=O)[C@H](C)NC(=O)[C@H](CCCNC(=N)N)NC(=O)[C@H](CO)NC1=O)C(=O)N[C@@H](CC(C)C)C(=O)N[C@@H](CCC(=O)O)C(=O)N1CCC[C@H]1C(=O)N3)NC(=O)[C@H](CCCCN)NC(=O)CNC(=O)[C@H](CC(N)=O)NC(=O)[C@H](CCSC)NC2=O` [Q13A] (H-GVIINVKCKISRACLEPCKKAGMRFGKCMNGKCHCTPK-OH; disulfide 8-28, 14-33, 18-35), the negative logarithm of the IC50 (pIC50) was 10.66 in test [1] and 9.60 in test [2].
